Test results published in patent US20070021419A1, “2-Aminophenyl-4-phenylpyrimidines as kinase inhibitors” (Cyclacel Limited, priority 2003, published 2007).

Experiments:
[1] = molecular target: CDK1/cyclin B (Homo sapiens, UniProt P06493); assay: Kinase assay, radioactive phosphate incorporation, CDK1/cyclin B; format: biochemical; conditions: 100 μM ATP, 30° C.; read-out: Kinase inhibition IC50 CDK1/cyclin B
In short: (§1)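 Steps: enzyme (2-4 μg) plus substrate in pH 7.4 buffer with DTT and vanadate; start with 100 μM ATP/15 mM MgCl2 containing [γ-32P]-ATP; incubate at 30° C; stop on ice; filter, wash with 75 mM orthophosphoric acid; scintillation count. Compounds diluted from DMSO stocks into 10% DMSO buffer.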

[2] = molecular target: T1, Aurora-A (Homo sapiens, UniProt O14965); assay: Kinase assay, radioactive phosphate incorporation, Aurora-A; format: biochemical; conditions: 100 μM ATP, 30° C.; read-out: Kinase inhibition IC50 Aurora-A
T1 sequence (O14965 1-403): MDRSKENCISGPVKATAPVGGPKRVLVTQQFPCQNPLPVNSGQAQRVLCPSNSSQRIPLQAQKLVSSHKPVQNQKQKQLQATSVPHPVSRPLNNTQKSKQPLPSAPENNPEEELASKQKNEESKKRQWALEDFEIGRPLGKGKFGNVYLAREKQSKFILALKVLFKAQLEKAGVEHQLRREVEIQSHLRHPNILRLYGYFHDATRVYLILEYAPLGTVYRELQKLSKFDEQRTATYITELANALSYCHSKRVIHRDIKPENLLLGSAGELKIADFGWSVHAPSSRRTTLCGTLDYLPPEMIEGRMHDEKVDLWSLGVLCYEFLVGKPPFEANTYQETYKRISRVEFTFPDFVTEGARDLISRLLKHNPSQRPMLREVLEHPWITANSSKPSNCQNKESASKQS
Description: (§2) The compounds from the examples above were investigated for their ability to inhibit the enzymatic activity of various protein kinases. This was achieved by measurement of incorporation of radioactive phosphate from ATP into appropriate polypeptide substrates. Recombinant protein kinases and kinase complexes were produced or obtained commercially. Assays were performed using 96-well plates and appropriate assay buffers (typically 25 mM β-glycerophosphate, 20 mM MOPS, 5 MM EGTA, 1 mM DTT, 1 mM Na3VO3, pH 7.4), into which were added 2-4 μg of active enzyme with appropriate substrates. The reactions were initiated by addition of Mg/ATP mix (15 mM MgCl2+100 μM ATP with 30-50 kBq per well of [γ-^32P]-ATP) and mixtures incubated as required at 30° C. Reactions were stopped on ice, followed by filtration through p81 filterplates or GF/C filterplates (Whatman Polyfiltronics, Kent, UK). After washing 3 times with 75 mM aq orthophosphoric acid, plates were dried, scintillant added and incorporated radioactivity measured in a scintillation counter (TopCount, Packard Instruments, Pangbourne, Berks, UK). Compounds for kinase assay were made up as 10 mM stocks in DMSO and diluted into 10% DMSO in assay buffer.

[3] = system: Saos-2; assay: 72-h MTT cytotoxicity assay, Saos-2; format: cell-based; conditions: Homo sapiens, read-out: 72-h MTT IC50 Saos-2, Saos-2 cell line
In short: (§3)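 Seeding by doubling time, overnight 37° C; compounds, 1/3 serial dilution, triplicate, 72 h at 37° C; PBS wash; MTT (5 mg/mL stock) 4 h dark, 37° C; DMSO solubilisation.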

[4] = system: A549; assay: 72-h MTT cytotoxicity assay, A549; format: cell-based; conditions: Homo sapiens, read-out: 72-h MTT IC50 A549, A549 cell line
In short: as §3

[5] = molecular target: CDK7/cyclin H (Homo sapiens, UniProt P50613); assay: Kinase assay, radioactive phosphate incorporation, CDK7/cyclin H; format: biochemical; conditions: 100 μM ATP, 30° C.; read-out: Kinase inhibition IC50 CDK7/cyclin H
Sequence of CDK7/cyclin H (P50613 whole entry, species assumed): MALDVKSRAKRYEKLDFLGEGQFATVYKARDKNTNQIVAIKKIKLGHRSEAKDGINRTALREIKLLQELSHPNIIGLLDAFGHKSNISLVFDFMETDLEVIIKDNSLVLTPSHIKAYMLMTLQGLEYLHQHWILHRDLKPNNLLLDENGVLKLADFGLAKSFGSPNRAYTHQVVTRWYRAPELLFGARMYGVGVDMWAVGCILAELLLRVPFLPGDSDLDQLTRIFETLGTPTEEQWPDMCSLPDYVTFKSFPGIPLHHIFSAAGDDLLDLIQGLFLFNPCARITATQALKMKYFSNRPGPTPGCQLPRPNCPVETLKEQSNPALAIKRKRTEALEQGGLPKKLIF
Sequence of CDK7/cyclin H (P51946 whole entry partner, species assumed): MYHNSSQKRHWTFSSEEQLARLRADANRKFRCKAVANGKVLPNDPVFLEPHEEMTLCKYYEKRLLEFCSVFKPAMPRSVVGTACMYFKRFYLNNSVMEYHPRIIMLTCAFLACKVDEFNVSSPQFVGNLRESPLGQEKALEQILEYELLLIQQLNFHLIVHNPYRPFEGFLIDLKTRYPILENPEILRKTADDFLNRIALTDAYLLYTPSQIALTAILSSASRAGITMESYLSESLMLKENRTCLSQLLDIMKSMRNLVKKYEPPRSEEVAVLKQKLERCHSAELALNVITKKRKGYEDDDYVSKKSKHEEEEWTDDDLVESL
In short: as §1

[6] = molecular target: CDK2/cyclin A (Homo sapiens, UniProt P24941); assay: Kinase assay, radioactive phosphate incorporation, CDK2/cyclin A; format: biochemical; conditions: 100 μM ATP, 30° C.; read-out: Kinase inhibition IC50 CDK2/cyclin A
In short: as §1

[7] = system: transformed human cell lines (A549, HT29, Saos-2); assay: 72-h MTT cytotoxicity assay, average of cell lines; format: cell-based; conditions: read-out: 72-h MTT IC50 Average, average of A549, HT29, Saos-2
In short: as §3

[8] = molecular target: GSK3β (Homo sapiens, UniProt P49841); assay: Kinase assay, radioactive phosphate incorporation, GSK3β; format: biochemical; conditions: 100 μM ATP, 30° C.; read-out: Kinase inhibition IC50 GSK3β
Sequence of GSK3β (P49841 whole entry, species assumed): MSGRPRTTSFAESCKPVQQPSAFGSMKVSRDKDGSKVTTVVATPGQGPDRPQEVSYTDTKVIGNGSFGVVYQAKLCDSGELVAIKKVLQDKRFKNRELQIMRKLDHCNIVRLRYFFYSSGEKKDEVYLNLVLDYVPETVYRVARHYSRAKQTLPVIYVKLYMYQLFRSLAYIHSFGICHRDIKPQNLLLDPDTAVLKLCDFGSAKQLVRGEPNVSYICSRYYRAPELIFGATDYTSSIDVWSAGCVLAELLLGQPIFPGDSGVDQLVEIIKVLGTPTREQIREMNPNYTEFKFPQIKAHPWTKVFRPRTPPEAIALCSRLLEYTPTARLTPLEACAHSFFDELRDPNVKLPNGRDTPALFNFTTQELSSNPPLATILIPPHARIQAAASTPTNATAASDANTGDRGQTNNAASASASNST
In short: as §1

[9] = system: HT29; assay: 72-h MTT cytotoxicity assay, HT29; format: cell-based; conditions: Homo sapiens, HT-29, read-out: 72-h MTT IC50 HT29, HT29 cell line
In short: as §3

[10] = molecular target: CDK9/cyclin T1 (Homo sapiens, UniProt P50750); assay: Kinase assay, radioactive phosphate incorporation, CDK9/cyclin T1; format: biochemical; conditions: 100 μM ATP, 30° C.; read-out: Kinase inhibition IC50 CDK9/cyclin T1
Sequence of CDK9/cyclin T1 (P50750 whole entry, species assumed): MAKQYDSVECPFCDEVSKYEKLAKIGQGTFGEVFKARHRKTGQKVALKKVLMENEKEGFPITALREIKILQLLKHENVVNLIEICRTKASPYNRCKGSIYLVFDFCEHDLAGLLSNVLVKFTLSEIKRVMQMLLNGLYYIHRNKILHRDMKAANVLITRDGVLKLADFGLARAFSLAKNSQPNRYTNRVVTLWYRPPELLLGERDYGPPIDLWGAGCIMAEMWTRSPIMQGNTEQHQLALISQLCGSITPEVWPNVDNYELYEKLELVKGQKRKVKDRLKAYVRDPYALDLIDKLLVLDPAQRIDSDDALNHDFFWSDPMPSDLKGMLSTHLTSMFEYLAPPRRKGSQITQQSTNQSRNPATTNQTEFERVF
Sequence of CDK9/cyclin T1 (O60563 whole entry partner, species assumed): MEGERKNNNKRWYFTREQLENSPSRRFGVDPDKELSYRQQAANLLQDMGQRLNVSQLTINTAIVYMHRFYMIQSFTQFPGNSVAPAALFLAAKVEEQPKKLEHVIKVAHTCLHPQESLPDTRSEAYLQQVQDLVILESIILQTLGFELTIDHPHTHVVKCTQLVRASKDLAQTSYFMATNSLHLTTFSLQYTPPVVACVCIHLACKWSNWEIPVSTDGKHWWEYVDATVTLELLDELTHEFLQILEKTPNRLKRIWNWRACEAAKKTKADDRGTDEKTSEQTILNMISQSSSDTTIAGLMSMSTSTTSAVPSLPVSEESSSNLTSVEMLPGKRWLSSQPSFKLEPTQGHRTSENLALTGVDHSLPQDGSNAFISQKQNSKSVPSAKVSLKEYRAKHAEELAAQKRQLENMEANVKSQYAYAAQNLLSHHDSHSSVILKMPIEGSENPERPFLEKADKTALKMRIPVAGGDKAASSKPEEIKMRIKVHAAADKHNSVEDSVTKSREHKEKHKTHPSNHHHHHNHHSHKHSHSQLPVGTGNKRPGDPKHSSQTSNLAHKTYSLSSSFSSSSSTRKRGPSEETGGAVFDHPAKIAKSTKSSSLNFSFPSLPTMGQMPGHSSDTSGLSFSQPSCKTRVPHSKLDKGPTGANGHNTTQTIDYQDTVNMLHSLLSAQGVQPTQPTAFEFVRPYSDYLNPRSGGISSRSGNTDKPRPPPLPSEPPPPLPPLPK
In short: as §1

[11] = molecular target: CDK4/cyclin D1 (Homo sapiens, UniProt P11802); assay: Kinase assay, radioactive phosphate incorporation, CDK4/cyclin D1; format: biochemical; conditions: 100 μM ATP, 30° C.; read-out: Kinase inhibition IC50 CDK4/cyclin D1
Sequence of CDK4/cyclin D1 (P11802 whole entry, species assumed): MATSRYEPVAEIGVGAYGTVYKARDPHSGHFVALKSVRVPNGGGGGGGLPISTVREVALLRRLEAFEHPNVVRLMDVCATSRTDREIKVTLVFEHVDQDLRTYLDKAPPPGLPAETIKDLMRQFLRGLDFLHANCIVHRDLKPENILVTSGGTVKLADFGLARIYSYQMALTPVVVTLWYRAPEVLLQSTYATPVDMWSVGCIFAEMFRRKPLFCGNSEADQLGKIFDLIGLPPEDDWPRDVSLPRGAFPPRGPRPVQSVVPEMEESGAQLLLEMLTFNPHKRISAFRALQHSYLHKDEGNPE
Sequence of CDK4/cyclin D1 (P24385 whole entry partner, species assumed): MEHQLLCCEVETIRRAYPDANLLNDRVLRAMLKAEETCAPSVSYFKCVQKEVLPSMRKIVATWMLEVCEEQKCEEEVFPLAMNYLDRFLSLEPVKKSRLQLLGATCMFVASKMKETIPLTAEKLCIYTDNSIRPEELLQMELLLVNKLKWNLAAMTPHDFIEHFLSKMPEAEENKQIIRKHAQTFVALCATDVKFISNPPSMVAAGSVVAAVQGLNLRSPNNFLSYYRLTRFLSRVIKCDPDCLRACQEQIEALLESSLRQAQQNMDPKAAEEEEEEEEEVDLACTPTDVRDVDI
In short: as §1

[12] = molecular target: CDK2/cyclin E (Homo sapiens, UniProt P24941); assay: Kinase assay, radioactive phosphate incorporation, CDK2/cyclin E; format: biochemical; conditions: 100 μM ATP, 30° C.; read-out: Kinase inhibition IC50 CDK2/cyclin E
In short: as §1

[13] = molecular target: PLK-1 (Homo sapiens, UniProt P53350); assay: Kinase assay, radioactive phosphate incorporation, PLK-1; format: biochemical; conditions: 100 μM ATP, 30° C.; read-out: Kinase inhibition IC50 PLK-1
Sequence of PLK-1 (P53350 whole entry, species assumed): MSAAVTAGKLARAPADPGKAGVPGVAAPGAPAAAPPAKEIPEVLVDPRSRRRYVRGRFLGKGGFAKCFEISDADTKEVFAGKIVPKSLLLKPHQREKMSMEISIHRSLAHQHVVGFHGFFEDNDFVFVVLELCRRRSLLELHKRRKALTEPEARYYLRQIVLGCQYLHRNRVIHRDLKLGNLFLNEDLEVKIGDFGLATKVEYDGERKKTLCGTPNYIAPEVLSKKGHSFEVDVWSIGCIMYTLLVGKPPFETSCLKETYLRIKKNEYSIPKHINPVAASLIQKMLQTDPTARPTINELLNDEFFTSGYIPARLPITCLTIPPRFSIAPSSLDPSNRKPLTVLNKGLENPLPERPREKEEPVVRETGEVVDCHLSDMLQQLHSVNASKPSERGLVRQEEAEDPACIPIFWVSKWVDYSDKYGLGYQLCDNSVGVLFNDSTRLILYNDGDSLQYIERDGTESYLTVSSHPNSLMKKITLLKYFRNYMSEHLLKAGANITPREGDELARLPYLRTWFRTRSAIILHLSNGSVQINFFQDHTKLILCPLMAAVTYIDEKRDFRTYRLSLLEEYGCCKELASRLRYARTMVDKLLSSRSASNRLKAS
Description: as §2

Sequence of CDK1/cyclin B (P06493 whole entry, species assumed): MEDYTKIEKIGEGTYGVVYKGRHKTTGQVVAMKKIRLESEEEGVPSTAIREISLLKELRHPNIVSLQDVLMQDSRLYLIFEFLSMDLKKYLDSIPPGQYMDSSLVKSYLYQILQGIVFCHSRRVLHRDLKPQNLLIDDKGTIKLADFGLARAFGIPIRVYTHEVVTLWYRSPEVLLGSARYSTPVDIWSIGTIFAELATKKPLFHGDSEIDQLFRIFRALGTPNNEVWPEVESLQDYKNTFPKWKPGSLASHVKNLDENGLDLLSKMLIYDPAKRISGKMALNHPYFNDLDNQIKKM
Sequence of CDK1/cyclin B (P14635 whole entry partner, species assumed): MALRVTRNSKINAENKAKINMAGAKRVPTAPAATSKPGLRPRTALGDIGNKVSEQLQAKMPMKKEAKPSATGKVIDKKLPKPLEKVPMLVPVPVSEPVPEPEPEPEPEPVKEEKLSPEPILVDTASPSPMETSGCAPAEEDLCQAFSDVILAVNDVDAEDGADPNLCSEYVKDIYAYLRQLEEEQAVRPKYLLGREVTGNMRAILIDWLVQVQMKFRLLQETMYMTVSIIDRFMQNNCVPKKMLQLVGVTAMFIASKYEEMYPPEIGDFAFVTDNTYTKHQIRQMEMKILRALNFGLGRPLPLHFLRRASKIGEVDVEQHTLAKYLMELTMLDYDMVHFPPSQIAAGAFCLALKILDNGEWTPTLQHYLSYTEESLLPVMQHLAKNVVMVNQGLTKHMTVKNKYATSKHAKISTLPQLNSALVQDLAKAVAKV

Row | Compound | IC50 [1] [µM] | IC50 [2] [µM] | IC50 [5] [µM] | IC50 [6] [µM] | IC50 [8] [µM] | IC50 [10] [µM] | IC50 [11] [µM] | IC50 [12] [µM] | IC50 [13] [µM] | IC50 [3] [µM] | IC50 [4] [µM] | IC50 [7] [µM] | IC50 [9] [µM]
1 | CC(=O)Nc1cccc(-c2ccnc(Nc3ccc(O)cc3)n2)c1 [Compound 11, N-{3-[2-(4-Hydroxy-phenylamino)-pyrimidin-4-yl]-phenyl}-acetamide] | – | – | – | – | – | – | – | 0.25 | 6.9 | 7.1 | 8.3 | 7.6 ± 0.6 | 7.5
2 | CC(=O)N(CC(C)C)c1cccc(-c2ccnc(Nc3ccc(O)cc3)n2)c1 [Compound 13, N-{3-[2-(4-Hydroxy-phenylamino)-pyrimidin-4-yl]-phenyl}-N-isobutyl-acetamide] | – | – | – | – | – | – | – | 0.55 | 14.5 | – | – | – | –
3 | CCN(C(C)=O)c1cccc(-c2ccnc(Nc3ccc(O)cc3)n2)c1 [Compound 10, N-Ethyl-N-{3-[2-(4-hydroxy-phenylamino)-pyrimidin-4-yl]-phenyl}-acetamide] | – | – | – | – | – | – | – | 0.16 | 4.8 | 5.4 | 8 | 7.7 ± 2.2 | 9.7
4 | CNc1cccc(-c2ccnc(Nc3ccc(O)cc3)n2)c1 [Compound 14, 4-[4-(3-Methylamino-phenyl)-pyrimidin-2-ylamino]-phenol] | – | – | – | – | – | – | – | 0.045 | 13.7 | – | – | – | –
5 | Clc1ccc(Nc2nccc(-c3cccc(Cl)c3)n2)cc1 [Compound 16, (4-Chloro-phenyl)-[4-(3-chloro-phenyl)-pyrimidin-2-yl]-amine] | – | – | – | – | – | – | – | – | 8.7 | – | – | – | –
6 | O=[N+]([O-])c1ccc(Nc2nccc(-c3cccc([N+](=O)[O-])c3)n2)cc1 [Compound 2, (4-Nitro-phenyl)-[4-(3-nitro-phenyl)-pyrimidin-2-yl]-amine] | – | – | – | – | – | – | – | – | 6.5 | – | – | – | –

More lines, main results first:

Row | IC50 [1] [µM] | IC50 [2] [µM] | IC50 [5] [µM] | IC50 [6] [µM] | IC50 [8] [µM] | IC50 [10] [µM] | IC50 [11] [µM] | IC50 [12] [µM] | IC50 [13] [µM] | Compound | IC50 [3] [µM] | IC50 [4] [µM] | IC50 [7] [µM] | IC50 [9] [µM]
7 | 1.2 | 1 | 0.18 | 1.7 | 0.04 | 0.001 | 3.8 | 0.2 | – | NC(=O)C1CCCN(Cc2cccc(-c3ccnc(Nc4cccc([N+](=O)[O-])c4)n3)c2)C1 (centres unmarked) [Compound 99, 1-{3-[2-(3-Nitro-phenylamino)-pyrimidin-4-yl]-benzyl}-piperidine-3-carboxylic acid amide] | 4.1 | 3 | 3.2 ± 0.8 | 2.6
8 | – | – | – | – | – | – | – | 0.36 | 7.8 | Nc1cccc(-c2ccnc(Nc3ccc(O)cc3)n2)c1 [Compound 15, 4-[4-(3-Amino-phenyl)-pyrimidin-2-ylamino]-phenol] | – | – | – | –
9 | 1.1 | 0.4 | 2.9 | 1.5 | 2.3 | 0.33 | 4.6 | 0.66 | – | CN(C)Cc1cccc(-c2ccnc(Nc3ccc(N4CCOCC4)cc3)n2)c1 [Compound 82, [4-(3-Dimethylaminomethyl-phenyl)-pyrimidin-2-yl]-(4-morpholin-4-yl-phenyl)-amine] | 6.6 | 6.2 | 5.8 ± 1.1 | 4.5
